According to ChEMBL document CHEMBL3885861, “Open TG-GATES”:

Species on record: Rattus norvegicus
Experiment: Open TG-GATES - Regimen: Single
Type: toxicity, organism-based, Sprague-Dawley
Set-up: regimen Single, gender Male, age 6 weeks
Settings: in vivo, po, route gavage; for APTT / Bas / Eos / Fbg / Hb / Ht / Lym / MCH / MCHC / MCV / Mono / Neu / PT / Plat / RBC / Ret / WBC: tissue Blood; for KIDNEY_L / KIDNEY_R / KIDNEY_TOTAL: tissue Kidney; for LIVER: tissue Liver; for A/G / ALP / ALT / AST / BUN / CRE / Ca / Cl / DBIL / GLC / IP / K / LDH / Na / PL / RALB / TBIL / TC / TG / TP / gamma-GTP: tissue Plasma
[1] = 0 mg/kg, 3 h, dose level Control
[2] = 0 mg/kg, 6 h, dose level Control
[3] = 0 mg/kg, 9 h, dose level Control
[4] = 0 mg/kg, 24 h, dose level Control
[5] = 100 mg/kg, 24 h, dose level Low

## CC(C)(S)[C@@H](N)C(=O)O [PENICILLAMINE]
[1]
  TERMINAL_BW: 202 g
  APTT: 15 s
  Bas: 0%
  Eos: 1%
  Fbg: 302 mg/dL
  Hb: 13.8 g/dL
  Ht: 42.5%
  Lym: 79.4%
  MCH: 21.6 pg
  MCHC: 32.5%
  MCV: 66.4 fL
  Mono: 2.8%
  Neu: 15.8%
  PT: 14.4 s
  Plat: 123.9 x10_4/uL
  RBC: 639.6 x10_4/ul
  Ret: 9.1%
  WBC: 90 x10_2/uL
  KIDNEY_L: 0.9 g
  KIDNEY_R: 0.9 g
  KIDNEY_TOTAL: 1.7 g
  LIVER: 9 g
  A/G: 0.9
  ALP: 1505 IU/L
  ALT: 42.2 IU/L
  AST: 75.2 IU/L
  BUN: 10 mg/dL
  CRE: 0.2 mg/dL
  Ca: 11.1 mg/dL
  Cl: 106.2 meq/L
  DBIL: 0.014 mg/dL
  GLC: 178.8 mg/dL
  IP: 8.4 mg/dL
  K: 4.4 meq/L
  LDH: 74.6 IU/L
  Na: 141.8 meq/L
  PL: 137.4 mg/dL
  RALB: 2.6 g/dL
  TBIL: 0.032 mg/dL
  TC: 71.4 mg/dL
  TG: 72.6 mg/dL
  TP: 5.3 g/dL
  gamma-GTP: 1.2 IU/L
[2]
  TERMINAL_BW: 201.2 g
  APTT: 16.2 s
  Bas: 0%
  Eos: 1%
  Fbg: 301.2 mg/dL
  Hb: 13.3 g/dL
  Ht: 41.1%
  Lym: 79.2%
  MCH: 20.6 pg
  MCHC: 32.4%
  MCV: 63.7 fL
  Mono: 2.6%
  Neu: 16.2%
  PT: 14.3 s
  Plat: 130.7 x10_4/uL
  RBC: 646.2 x10_4/ul
  Ret: 8.8%
  WBC: 87.2 x10_2/uL
  KIDNEY_L: 0.9 g
  KIDNEY_R: 0.9 g
  KIDNEY_TOTAL: 1.7 g
  LIVER: 8.5 g
  A/G: 0.9
  ALP: 1217 IU/L
  ALT: 34.4 IU/L
  AST: 70.6 IU/L
  BUN: 9.6 mg/dL
  CRE: 0.2 mg/dL
  Ca: 11 mg/dL
  Cl: 106 meq/L
  DBIL: 0.008 mg/dL
  GLC: 175.8 mg/dL
  IP: 8.9 mg/dL
  K: 4.3 meq/L
  LDH: 76 IU/L
  Na: 142.8 meq/L
  PL: 135 mg/dL
  RALB: 2.5 g/dL
  TBIL: 0.038 mg/dL
  TC: 75.8 mg/dL
  TG: 52.4 mg/dL
  TP: 5.3 g/dL
  gamma-GTP: 1 IU/L
[3]
  TERMINAL_BW: 199.9 g
  APTT: 16.9 s
  Bas: 0%
  Eos: 0.6%
  Fbg: 300 mg/dL
  Hb: 13.5 g/dL
  Ht: 41.9%
  Lym: 80%
  MCH: 21.1 pg
  MCHC: 32.3%
  MCV: 65.3 fL
  Mono: 2.6%
  Neu: 16.2%
  PT: 14.5 s
  Plat: 126.8 x10_4/uL
  RBC: 641.4 x10_4/ul
  Ret: 9.1%
  WBC: 92.7 x10_2/uL
  KIDNEY_L: 0.9 g
  KIDNEY_R: 0.9 g
  KIDNEY_TOTAL: 1.8 g
  LIVER: 8.1 g
  A/G: 0.9
  ALP: 1372.8 IU/L
  ALT: 40.6 IU/L
  AST: 72 IU/L
  BUN: 8.6 mg/dL
  CRE: 0.1 mg/dL
  Ca: 10.7 mg/dL
  Cl: 106.4 meq/L
  DBIL: 0.006 mg/dL
  GLC: 187.4 mg/dL
  IP: 9.8 mg/dL
  K: 4.2 meq/L
  LDH: 68.4 IU/L
  Na: 143.6 meq/L
  PL: 144 mg/dL
  RALB: 2.6 g/dL
  TBIL: 0.034 mg/dL
  TC: 82 mg/dL
  TG: 55 mg/dL
  TP: 5.4 g/dL
  gamma-GTP: 1.2 IU/L
[4]
  TERMINAL_BW: 214.6 g
  APTT: 16.2 s
  Bas: 0%
  Eos: 1%
  Fbg: 317.2 mg/dL
  Hb: 13.3 g/dL
  Ht: 40.9%
  Lym: 76.8%
  MCH: 21.3 pg
  MCHC: 32.6%
  MCV: 65.2 fL
  Mono: 3.6%
  Neu: 17.6%
  PT: 13.9 s
  Plat: 125.8 x10_4/uL
  RBC: 626.4 x10_4/ul
  Ret: 8.2%
  WBC: 92.6 x10_2/uL
  KIDNEY_L: 0.9 g
  KIDNEY_R: 0.9 g
  KIDNEY_TOTAL: 1.8 g
  LIVER: 9.5 g
  A/G: 0.9
  ALP: 1418.8 IU/L
  ALT: 43 IU/L
  AST: 74.6 IU/L
  BUN: 13.2 mg/dL
  CRE: 0.2 mg/dL
  Ca: 11.1 mg/dL
  Cl: 105.8 meq/L
  DBIL: 0.01 mg/dL
  GLC: 174.8 mg/dL
  IP: 7.2 mg/dL
  K: 4 meq/L
  LDH: 80 IU/L
  Na: 143.4 meq/L
  PL: 160.4 mg/dL
  RALB: 2.6 g/dL
  TBIL: 0.026 mg/dL
  TC: 83 mg/dL
  TG: 115.6 mg/dL
  TP: 5.5 g/dL
  gamma-GTP: 1 IU/L
100 mg/kg, 3 h, dose level Low
  TERMINAL_BW: 201.7 g
  APTT: 15.4 s
  Bas: 0%
  Eos: 1%
  Fbg: 283 mg/dL
  Hb: 13.5 g/dL
  Ht: 41.8%
  Lym: 79.2%
  MCH: 20.5 pg
  MCHC: 32.4%
  MCV: 63.4 fL
  Mono: 2.8%
  Neu: 16.4%
  PT: 15 s
  Plat: 118.1 x10_4/uL
  RBC: 659.6 x10_4/ul
  Ret: 9.3%
  WBC: 78.7 x10_2/uL
  KIDNEY_L: 0.9 g
  KIDNEY_R: 0.9 g
  KIDNEY_TOTAL: 1.8 g
  LIVER: 8.7 g
  A/G: 1
  ALP: 1342 IU/L
  ALT: 42.6 IU/L
  AST: 74.4 IU/L
  BUN: 9.6 mg/dL
  CRE: 0.2 mg/dL
  Ca: 10.8 mg/dL
  Cl: 106.6 meq/L
  DBIL: 0.012 mg/dL
  GLC: 186.8 mg/dL
  IP: 8.2 mg/dL
  K: 4.3 meq/L
  LDH: 61.2 IU/L
  Na: 142.2 meq/L
  PL: 139 mg/dL
  RALB: 2.6 g/dL
  TBIL: 0.036 mg/dL
  TC: 74.4 mg/dL
  TG: 63.6 mg/dL
  TP: 5.3 g/dL
  gamma-GTP: 1 IU/L
100 mg/kg, 6 h, dose level Low
  TERMINAL_BW: 200.9 g
  APTT: 18.6 s
  Bas: 0%
  Eos: 1%
  Fbg: 310 mg/dL
  Hb: 13.4 g/dL
  Ht: 41.5%
  Lym: 74.8%
  MCH: 20.6 pg
  MCHC: 32.2%
  MCV: 63.9 fL
  Mono: 3%
  Neu: 20.6%
  PT: 14.7 s
  Plat: 117.7 x10_4/uL
  RBC: 651 x10_4/ul
  Ret: 9.1%
  WBC: 91.5 x10_2/uL
  KIDNEY_L: 0.9 g
  KIDNEY_R: 0.9 g
  KIDNEY_TOTAL: 1.8 g
  LIVER: 8.2 g
  A/G: 0.9
  ALP: 1252 IU/L
  ALT: 38 IU/L
  AST: 76 IU/L
  BUN: 7.2 mg/dL
  CRE: 0.2 mg/dL
  Ca: 10.7 mg/dL
  Cl: 106.6 meq/L
  DBIL: 0.01 mg/dL
  GLC: 175.4 mg/dL
  IP: 8.7 mg/dL
  K: 4 meq/L
  LDH: 63.8 IU/L
  Na: 143 meq/L
  PL: 138.2 mg/dL
  RALB: 2.5 g/dL
  TBIL: 0.038 mg/dL
  TC: 78.8 mg/dL
  TG: 44.6 mg/dL
  TP: 5.2 g/dL
  gamma-GTP: 1.2 IU/L
100 mg/kg, 9 h, dose level Low
  TERMINAL_BW: 200 g
  APTT: 15.2 s
  Bas: 0%
  Eos: 0.8%
  Fbg: 315.8 mg/dL
  Hb: 13.3 g/dL
  Ht: 41.2%
  Lym: 78%
  MCH: 20.5 pg
  MCHC: 32.3%
  MCV: 63.6 fL
  Mono: 2.2%
  Neu: 18.4%
  PT: 14.3 s
  Plat: 124 x10_4/uL
  RBC: 647.4 x10_4/ul
  Ret: 9%
  WBC: 74.3 x10_2/uL
  KIDNEY_L: 0.9 g
  KIDNEY_R: 0.9 g
  KIDNEY_TOTAL: 1.8 g
  LIVER: 7.9 g
  A/G: 0.9
  ALP: 1373.8 IU/L
  ALT: 40 IU/L
  AST: 68.6 IU/L
  BUN: 9.6 mg/dL
  CRE: 0.2 mg/dL
  Ca: 10.7 mg/dL
  Cl: 106.4 meq/L
  DBIL: 0.008 mg/dL
  GLC: 166.2 mg/dL
  IP: 10 mg/dL
  K: 4 meq/L
  LDH: 54.4 IU/L
  Na: 143.2 meq/L
  PL: 137 mg/dL
  RALB: 2.6 g/dL
  TBIL: 0.034 mg/dL
  TC: 79.6 mg/dL
  TG: 45 mg/dL
  TP: 5.4 g/dL
  gamma-GTP: 1.2 IU/L
[5]
  TERMINAL_BW: 219.1 g
  APTT: 16.6 s
  Bas: 0%
  Eos: 0.8%
  Fbg: 272.4 mg/dL
  Hb: 13 g/dL
  Ht: 40%
  Lym: 78.6%
  MCH: 20.8 pg
  MCHC: 32.4%
  MCV: 64.2 fL
  Mono: 2.8%
  Neu: 16.8%
  PT: 14.2 s
  Plat: 125.3 x10_4/uL
  RBC: 623.4 x10_4/ul
  Ret: 8%
  WBC: 90.1 x10_2/uL
  KIDNEY_L: 0.9 g
  KIDNEY_R: 0.9 g
  KIDNEY_TOTAL: 1.9 g
  LIVER: 10.4 g
  A/G: 0.9
  ALP: 1649.2 IU/L
  ALT: 45 IU/L
  AST: 70.4 IU/L
  BUN: 13.4 mg/dL
  CRE: 0.2 mg/dL
  Ca: 11 mg/dL
  Cl: 104.4 meq/L
  DBIL: 0.012 mg/dL
  GLC: 178.6 mg/dL
  IP: 7.9 mg/dL
  K: 4 meq/L
  LDH: 81.6 IU/L
  Na: 143.2 meq/L
  PL: 155.2 mg/dL
  RALB: 2.7 g/dL
  TBIL: 0.026 mg/dL
  TC: 81.6 mg/dL
  TG: 93.6 mg/dL
  TP: 5.5 g/dL
  gamma-GTP: 1 IU/L
